In the assay the test system is A375 cells (human skin melanoma derived cell line). In words: A375 cell killing assay (CellTiter-Glo luminescence). The format is cell-based. The following applies: for potency relative to Onco-001 (times more potent): from EC50 values. On the procedure: Alternatively, A375 cells (human skin melanoma derived cell line) are harvested by centrifugation and then re-suspended in a culture medium. The cell density is adjusted, and cell suspension transferred to the assay multi-well plate. The marginal wells are filled with PBS. The assay plate is incubated in a cell incubator for about 16˜18 hours. Working solutions of test compounds and positive control at various concentrations are added to corresponding wells of the plate. The assay plate is then incubated for an additional 72 hours in a 37° C./5% CO2 incubator. After incubation, the working solution of CellTiter-Glo® reagent is added to the corresponding wells and shaken on an orbital shaker. The assay plate is incubated at room temperature for a short while to stabilize the luminescent signal. Luminescence signals are measured by a luminescence plate reader, such as PheraStar (BMG). Data are stored on a local computer or computer server for analysis.
In general terms: In ATP-based viability assays light output follows the ATP content of the culture.

By pEC50 is commonly meant −log10 of the EC50, conventionally taken in molar units.

pEC50: −log10 of the molar value. Ends that are not written are not given here.

As for “Onco -005 (Ac-GPSRVGG; not fully specified (C-terminus); also: gamma-carboxyglutamic acid, no place given)”, the “potency relative to Onco-001 (times more potent)” value is “approximately 15 ×”. On the same count and under the same terms, with “Onco-003: formula (I): R1 and R2 form trans-R,R-1,2-diaminocyclohexane, R3 and R4 joined by bidentate peptide AcGPSRVGGCD” the entry was “approximately 15 ×”. As to “cis-bis[AcGPSRVGGCNH2][trans-(1R,2R)-1,2-diaminocyclohexane]platinum(II) [Onco-001]”, the pEC50 (72 hours incubation, CellTiter-Glo) is ~3.89.

(Values after US20240190922A1, “PEPTIDE PLATINUM COMPLEXES AND METHODS OF USE THEREOF” (priority 2020, published 2024).)
